SMILES strings stand for the structures.

The source of these data is patent US20040175448A1, “Pharmaceutical compositions” (Mars, Incorporated, priority 1994, published 2004).

The nature of this series: Rancimat oxidative stability test of peanut oil. Particulars: Rancimat 100° C., 20 cc/min air, average of duplicate. The text has this:
The procedures described in Examples 1, 2 and 3 were used to prepare cocoa extracts which were manipulated further to produce two fractions from gel permeation chromatography. These two fractions are actually combined fractions A through C, and D and E (See FIG. 1) whose antioxidant properties were compared against the synthetic antioxidants BHA and BHT.
Peanut Oil was pressed from unroasted peanuts after the skins were removed. Each test compound was spiked into the oil at two levels about 100 ppm and about 20 ppm, with the actual levels given in Table 7.50 μL of methanol solubilized antioxidant was added to each sample to aid in dispersion of the antioxidant. A control sample was prepared with 50 μL of methanol containing no antioxidant.
The samples were evaluated in duplicate, for oxidative stability using the Rancimat stability test at 100° C. and 20 cc/min of air. Experimental parameters were chosen to match those used with the Active Oxygen Method (AOM) or Swift Stability Test (Van Oosten et al., 1981). Results are reported in Table 8 as hours required to reach a peroxide level of 100 meq.

Where [1] appears, read: 20 ppm (actual 20-24 ppm, Table 7).
[2] abbreviates: 100 ppm (actual 100-120 ppm, Table 7).

For `COc1ccc(O)c(C(C)(C)C)c1` [BHA, Butylated Hydroxyanisole], the “Oxidative stability of peanut oil: hours required to reach a peroxide level of 100 meq” value by setting is: under setting [1], 13.5 ± 2.1 h; under setting [2], 14.0 ± 1.4 h.
The matching figures for `Cc1cc(C(C)(C)C)c(O)c(C(C)(C)C)c1` [BHT, Butylated Hydroxytoluene]: 16.5 ± 2.1 h and 12.5 ± 2.1 h.
